# From patent publication US20260217656A1, “Compounds Affecting KRAS” (UNIVERSITAT DE BARCELONA, priority 2022, published 2026)
# Entries after “also recorded” stand apart in the source; their conditions may differ.
# What was measured:
# [1] = tested on: Ras effectors ERK and AKT in DLD-1 cells; test: Western blot of downstream RAS signaling (P-ERK, P-AKT, P-MEK) in serum-starved DLD-1 cells; type: cell-based, human; settings: 100 μM; for activation of AKT and ERK / relative capacity to activate Ras effectors ERK and AKT among the compounds: DLD-1 serum-starved cells, 3 hours
# Source text: DLD-1 (KRASWT/G13D) (clone V15, #HD PAR-086) colorectal adenocarcinoma cell line and DLD-1 knockout of mutant KRAS allele, DLD-1 KO (KRASWT/−) (clone DWT7, #HD105-002), were obtained from Horizon Discovery Ltd. (Cambridge, UK). hTERT-RPE (KRASWT/WT) immortalized retinal pigment epithelial human cell line was obtained from the […] (ATCC). DLD-1 KO cells stably expressing HA-KRAS G12V were previously generated in our laboratory (Cabot et al., 2021). All cells were grown in DMEM-HAM s F12 (1:1) supplemented with 10% foetal bovine serum (Biological Industries, Israel), penicillin, streptomycin, and nonessential amino acids. Cells were tested once per month for mycoplasma contamination.
# Cells were seeded in a media containing 10% FBS for 24 hours and then they were serum starved (0.1% FBS) for the next 24 hours. Afterwards, they were incubated with the different compounds during the times specified in each figure. When indicated, also in order to activate downstream KRAS cell signalling, treatment for 10 minutes with EGF (50 ng/mL) (Sigma-Aldrich) was performed.
# Proteins were resolved by SDS-PAGE, transferred onto PVDF membranes (Immobilon-P, Millipore) and Western blot was performed as previously described (Cabot et al, Oncogene 2021). The following primary antibodies were used: anti-c-RAF (BD Transduction 610151, 1:500); anti-phospho-c-RAF S338 (Cell Signaling 9427, 1:500); anti-AKT (Cell Signaling 9272, 1:1000); anti-phospho-AKT T308 (Cell Signaling 4056, 1:1000); anti-phospho-MEK1/2 S221 (Cell Signalling […]); anti-p44/42 MAPK (ERK1/2) (Cell Signaling 9102, 1:2000); anti-phospho-p44/42 MAPK(ERK1/2) T202/Y204 (Cell Signaling 4370, 1:2000); anti-HA (Sigma-Aldrich H6908, 1:1000); anti-cleaved-caspase-3 (Asp175) (Cell Signaling 9661, 1:1000); HRP-coupled secondary antibodies used: goat anti-rabbit (BioRad 170-6515, 1:3000) or goat anti-mouse (BioRad 170 6516, 1:3000).
# For analysis of RAS signalling, cells were lysed in a buffer containing 67 mM Tris-HCl pH 6.8 and 2% SDS and then the samples were heated at 97° C. for 15 minutes. Protein concentration of the lysates was assessed using the Lowry method. An aliquot of […] of protein per sample was loaded onto the gels.
# We first analyzed the effect of P14 on the activation of downstream RAS signaling pathways (RAF/MEK/ERK and PI3K/AKT) in DLD-1 cells (CRC cells carrying one oncogenic KRAS allele). To this end, DLD-1 serum-starved cells (0.1% FCS) were treated with P14 (100 μM) at different times, and activation of AKT and ERK was evaluated by Western blot. […] As a 3-hour treatment was associated with major effects, we chose this duration for the subsequent experiments with the other compounds. Next, DLD-1 serum-starved cells were treated with P14A-P14C at 100 μM for 3 hours and activation of AKT and ERK was assessed as above. […] The kinetics of RAS downstream signaling was analyzed in P14B-treated cells compared to 10% FBS serum.
# Panc-1 cells = test: Cell Titre Glo viability assay, Panc-1; type: cell-based; settings: Panc-1 cells (KRAS mutant G12D), after five days of treatment
# Protocol: In the next study, compounds were tested against cancer cells: pancreatic cancer cells (Panc-1), ovarian cancer cells (SW626) and uterine sarcoma cells (Mes-sa). The data generated using Cell Titre Glo® assays under standard conditions where the cells are grown in 384 well plates, then placed under continuous pressure of treatment for the relevant time period before being halted and assayed. The data collected is then plotted for analysis.
# FIG. […]
Compound,activation of AKT and ERK [1],relative capacity to activate Ras effectors ERK and AKT among the compounds [1],"P-ERK and P-AKT levels, time course ([1]; DLD-1 serum-starved cells (0.1% FCS), 3 and 6 hours)",IC50 (Panc-1 cells),response among the molecules tested (Panc-1 cells)
Cc1n[nH]c(O)c1C(c1ccc(F)cc1)c1c(C)n[nH]c1O [Example P14A],increase AKT and/or ERK signalling,highest activation of both Ras effectors,,,
Cc1n[nH]c(O)c1C(c1ccc2c(c1)OCO2)c1c(C)n[nH]c1O [Example P14C],activated AKT and ERK kinases; also recorded: increase AKT and/or ERK signalling,,,,
Cc1n[nH]c(O)c1C(c1ccccc1OCc1ccc(Cl)cc1)c1c(C)n[nH]c1O [Example P14],activated AKT and ERK kinases; also recorded: increase AKT and/or ERK signalling,most efficient,significantly increased P-ERK and P-AKT,,
COc1ccc(C(c2c(C)n[nH]c2O)c2c(C)n[nH]c2O)cc1OCCc1ccc(Cl)cc1 [P14(J)SD],,,,< 20 µM,best response
